Publication PMC7018034, “Antimicrobial activity of Ib-M peptides against Escherichia coli O157: H7” (PLoS ONE, 2020)
In brackets after ≈: the same amount, converted by molar mass. Several values for one entry are separate records, joined by “and”; a condition that tells them apart may be missing. Equal values may be shown once. Ends that are not written are not given here.

How the values were obtained:
[1] = test system: E. coli O157: H7 (ATCC 43888); assay: microbe, parasite or virus in culture; format: cell-based, Escherichia coli O157: H7; details: for SI (selectivity index) E. coli O157: H7 ATCC 43888: ratio CC50 in VERO cells / MIC in ATCC 43888, maximum evaluated concentration used where CC50 not determined
Procedure: (§1) MIC was determined using the microdilution method as described in protocol M07-A9 of the Clinical and Laboratory Standards Institute. Briefly, 1:2 serial dilutions of Ib-M peptides in MHB were placed in a 96-well round-bottom plate at concentrations ranging from 100 to 0.05 μM; or reference antibiotics STP and GNT between 200 to 0.1 μM. The bacterial inoculum was prepared from a subculture of E. coli O157: H7 (ATCC 43888 or AC188) in LBB incubated for 18–24 hours at 35 ± 2°C before to the test. The bacteria suspension was diluted to 1x10^8 colony forming units (CFU)/mL, to obtain a turbidity equivalent to 0.5 on the McFarland scale, confirmed by spectrophotometry upon reaching an absorbance between 0.08–0.1 at a wavelength of 625 nm; then a 1:200 dilution in MHB was performed to obtain a final concentration of 5x10^5 CFU/mL. The diluted bacterial suspension was added to the 96-well plate containing the serially diluted peptides. The final volume of 200 μL per well consisted of 100 μl of the compound and 100 μL of diluted bacteria suspension. Negative and positive growth controls were performed by adding only MHB or E. coli O157: H7 with MHB to the wells, respectively. At the end of the incubation time, MIC was determined as the lowest compound concentration at which no bacterial growth was observed.

[2] = test system: E. coli O157: H7 clinical isolate (AC188); assay: microbe, parasite or virus in culture; format: cell-based, Escherichia coli O157: H7; details: for SI (selectivity index) E. coli O157: H7 AC188: ratio CC50 in VERO cells / MIC in AC188, maximum evaluated concentration used where CC50 not determined
Procedure: as §1

[3] = test system: E. coli O157: H7 (ATCC 43888); assay: microbe, parasite or virus in culture; format: cell-based, Escherichia coli O157: H7
Procedure: (§2) MBC was determined as described in the M26-A protocol of the CLSI, 1999 [13]. […] Blood agar cultures were incubated at 35 ± 2°C for 18–24 hours, and the number of CFU was estimated.

[4] = test system: E. coli O157: H7 clinical isolate (AC188); assay: microbe, parasite or virus in culture; format: cell-based, Escherichia coli O157: H7
Procedure: as §2

VERO cells (ATCC CCL-81) = assay: Cytotoxicity, MTT; format: cell-based; details: 24 h exposure, 595 nm, mean ± S.D., triplicate in two independent experiments
Procedure: VERO cells at a concentration of 3x10^4 cells/mL were plated in 96 flat-bottom wells and incubated for 24 hours at 37°C in a 5% CO2 atmosphere. Subsequently, the cells were exposed to 1:2 serial dilutions of Ib-M peptides in the range from 400 to 1.6 μM and the reference antibiotics between 3200 and 1.6 μM. Control cells were maintained without peptides or reference antibiotics. After 24 hours of incubation, VERO cells viability was determined using the MTT (3- (4,5-dimethiazol-2-yl) -2,5-diphenyltetrazole bromide) colorimetric technique (Mosmann, 1983). To do so, 20 μL/well of MTT was added at a concentration of 5 mg/mL and incubated for 4 hours. After that time, the culture medium was removed from the wells, and 100 μL of dimethylsulfoxide was added to solubilize the formazan crystals. Absorbance was determined by spectrophotometry using a wavelength of 595 nm.
The 50% cytotoxic concentrations (CC50) were calculated by sigmoid regression analysis from the inhibition percentages using the XLFit program (^©2019 IDBS). The Selectivity Index (SI) was calculated as the ratio between CC50 in VERO cells and the MICs in E. coli O157: H7 [17]. For those compounds whose CC50 could not be determined, the maximum evaluated concentration was used to calculate the respective SI.

E. coli = test system: E. coli; design: method as in PMID 29671805, PMID 19952307; details: in vitro activity reported against E. coli; cited from earlier work
[5] = test system: E. coli O157: H7 (ATCC 43888); format: cell-based, Escherichia coli O157: H7; details: lag phase, 0.5xMIC, at 24 hour, turbidity at 595 nm
Procedure: The kinetics of cell growth of E. coli O157: H7 in the presence of the peptides were followed during 24 hours. The tests were performed with the reference strain ATCC 43888, and the antibacterial activity of the compounds was evaluated in the latency phase (lag phase) and the logarithmic phase (log phase).
For the lag phase, E. coli O157: H7 at 5x10^5 CFU/mL with MHB in 96-well plate was treated with Ib-M peptides at a concentrations of 0.5xMIC, 1xMIC, 2xMIC in a final volume of 200 μL/well for 24 hours at 37°C. The turbidity was determined spectrophotometrically at 595 nm for samples taken at 0, 2, 4, 6, 8, 10, 12 and 24 hours.

[6] = strain ATCC 43888, MHB, 5x10^5 CFU/mL, mean ± S.D., triplicate in two independent experiments
[7] = clinical isolate AC188, MHB, 5x10^5 CFU/mL, mean ± S.D., triplicate in two independent experiments
[8] = strain ATCC 43888, colony count <= 10 on blood agar, mean ± S.D., triplicate in two independent experiments
[9] = clinical isolate AC188, colony count <= 10 on blood agar, mean ± S.D., triplicate in two independent experiments

Compound | MIC [1, 6] | MIC [2, 7] | MBC [3, 8] | MBC [4, 9] | CC50 VERO Cells (VERO cells (ATCC CCL-81)) | MIC (E. coli) | MIC ([1]; Escherichia coli, ATCC43888) | SI (selectivity index) E. coli O157: H7 ATCC 43888 [1] | MIC ([2]; Escherichia coli) | SI (selectivity index) E. coli O157: H7 AC188 [2] | MBC ([3]; Escherichia coli, ATCC43888) | MBC ([4]; Escherichia coli) | percentage of E. coli growth inhibition [5]
EWGRRMMGWRPGRRMMRRWW-NH2 [Ib-M5] | 8.3 ± 3.2 µM | 4.7 ± 1.7 µM | 15.6 ± 7.7 µM | 7.3 ± 2.6 µM | 315.3 ± 49.1 µM |  |  |  |  |  |  |  | 
EWGRRMMGWGRGRRMMRRWW-NH2 [Ib-M6] | 9.4 ± 3.4 µM | 4.7 ± 1.7 µM | 11.5 ± 7.3 µM | 10.4 ± 3.2 µM | 310.9 ± 4.4 µM |  |  |  |  |  |  |  | 
lactoferricin |  |  |  |  |  | 2 µM |  |  |  |  |  |  | 
[H]/N=C(/N)N[C@H]1[C@H](O)[C@@H](O)[C@H](O[C@@H]2O[C@@H](C)[C@](O)(C=O)[C@H]2O[C@@H]2O[C@@H](CO)[C@H](O)[C@@H](O)[C@@H]2NC)[C@@H](N/C(N)=N\[H])[C@@H]1O [STP, Streptomycin, reference compound] | 9.4 ± 3.4 µM (≈ 5.47 µg/mL) | 66.7 ± 25.8 µM (≈ 38.8 µg/mL) | 11.5 ± 2.6 µM (≈ 6.69 µg/mL) | 108.3 ± 49.2 µM (≈ 63 µg/mL) | >3200 ± 0 µM |  | 9.4 µM (≈ 5.47 µg/mL) | >340.4 | 66.7 µM (≈ 38.8 µg/mL) | >48 | 11.5 µM (≈ 6.69 µg/mL) | 108 µM (≈ 63 µg/mL) | 
magainin 2 |  |  |  |  |  | 8 µM |  |  |  |  |  |  | 
EWGRRMMGRGPGRRMMRWWR-NH2 [Ib-M1] | 4.7 ± 1.7 µM | 1.6 ± 0.0 µM | 6.3 ± 0.0 µM | 3.7 ± 1.3 µM | 395.2 ± 18.3 µM |  |  |  |  |  |  |  | higher than 63%
CNC(C)C1CCC(N)C(OC2C(N)CC(N)C(OC3OCC(C)(O)C(NC)C3O)C2O)O1 (stereo not shown) [GNT, Gentamicin, reference compound] |  |  |  |  | > 3200 µM and >3200 ± 0 µM |  | 1.8 ± 0.6 µM (≈ 0.86 µg/mL) | >1777.8 | 2.3 ± 0.9 µM (≈ 1.1 µg/mL) | >1391.3 | 4.7 ± 1.7 µM (≈ 2.24 µg/mL) | 4.2 ± 1.6 µM (≈ 2.01 µg/mL) | 
EWGRRMMGRGPGRRMMRRWW-NH2 [Ib-M4] | 12.5 ± 0.0 µM | 6.3 ± 0.0 µM | 22.9 ± 5.1 µM | 15.6 ± 10.3 µM | > 400 ± 0.0 µM |  |  |  |  |  |  |  | 
EWGRRMMGWRPGRRMMRWWR-NH2 [Ib-M2] | 4.7 ± 1.7 µM | 3.7 ± 1.28 µM | 6.8 ± 3.1 µM | 4.2 ± 1.6 µM | 197.5 ± 2.4 µM |  |  |  |  |  |  |  | 
